Activity, inhibition in vivo and IC50 data for 6 compounds are collected here from ChEMBL document CHEMBL5055667, “Development of Novel VEGFR2 Inhibitors Originating from Natural Product Analogues with Antiangiogenic Impact” (J Med Chem, 2021).

Molecules are shown by their SMILES. pIC50: −log10 of the molar value. Active and inactive are the calls of the source. No cut-off for these calls is given here.

Data set [1] has as its system HUVEC. As to the kind of experiment: Antiproliferative activity against HUVEC cells incubated for 72 hrs under serum treatment by MTT assay. It is filed as functional, cell-based. The following applies: Homo sapiens.
Data set [2] has as its system U-87 MG. The data set can be described thus: Antiproliferative activity against human U-87MG cells incubated for 72 hrs under serum treatment by MTT assay. The class given is functional, cell-based. The following applies: U-87MG ATCC. For orientation: Formazan colour is commonly taken as a measure of viable cells.
For data set [3], the system named is HUVEC. The data set can be described thus: Antiproliferative activity against HUVEC cells incubated for 72 hrs under VEGF treatment by MTT assay. It is filed as functional, cell-based. Conditions: Homo sapiens.
The test system of data set [4] is U-87 MG. The data set can be described thus: Antiproliferative activity against human U87MG cells incubated for 72 hrs under VEGF treatment by MTT assay. Conditions: U-87MG ATCC. The class given is functional, cell-based.
Data set [5] relates to U-87 MG. As to the kind of experiment: Antitumor activity against human U-87MG cells xenografted in mouse assessed as reduction in tumor size at 10 mg/kg, ip treated every other day for 20 days. The class given is functional, organism-based. The following applies: U-87MG ATCC, time 20.0 day. (A xenograft is tissue or cells of one species grown in another, often human tumour cells in immunodeficient mice.)

The subject of data set [6] is U-87 MG. The data set can be described thus: Antitumor activity against human U-87MG cells xenografted in mouse assessed as reduction in tumor weight at 10 mg/kg, ip treated every other day for 20 days. Conditions: U-87MG ATCC, time 20.0 day. It is filed as functional, organism-based.
The subject of another data set is Mus musculus. The data set can be described thus: Toxicity in mouse assessed as change in body weight at 10 mg/kg, ip treated every other day for 20 days. Conditions: in vivo, 480 h, time 20 day. It is filed as organism-based.
Data set [7] concerns U-87 MG. The data set can be described thus: Antiangiogenic activity against human U-87MG cells xenografted in mouse assessed as reduction in vascular density at 10 mg/kg, ip treated every other day for 20 days by H& E staining analysis relative to control. It is filed as functional, U-87MG ATCC. Conditions: 480 h, time 20 day.
Data set [8] deals with U-87 MG. The data set can be described thus: Antiangiogenic activity against human U-87MG cells xenografted in mouse assessed as reduction in Bcl-xl expression at 10 mg/kg, ip treated every other day for 20 days by Western blotting analysis. It is filed as functional, U-87MG ATCC. Conditions: 480 h, time 20 day.
Data set [9] deals with U-87 MG. The data set can be described thus: Antiangiogenic activity against human U-87MG cells xenografted in mouse assessed as reduction in CD31 expression at 10 mg/kg, ip treated every other day for 20 days by Western blotting analysis. Conditions: 480 h, time 20 day. The class given is functional, U-87MG ATCC.
Data set [10] deals with U-87 MG. As to the kind of experiment: Antiangiogenic activity against human U-87MG cells xenografted in mouse assessed as reduction in pVEGFR2 expression at 10 mg/kg, ip treated every other day for 20 days by Western blotting analysis. The following applies: 480 h, time 20 day. It is filed as functional, U-87MG ATCC.
The test system of data set [11] is U-87 MG. The data set can be described thus: Antiangiogenic activity against human U-87MG cells xenografted in mouse assessed as reduction in HIF1alpha expression at 10 mg/kg, ip treated every other day for 20 days by fluorescence microscopy. Conditions: U-87MG ATCC, time 20.0 day. The class given is functional, organism-based.
In data set [12] the target is Vascular endothelial growth factor receptor 2 (Homo sapiens, UniProt P35968). As to the kind of experiment: Inhibition of VEGFR2 phosphorylation in VEGF-induced HUVEC cells pretreated measured after overnight incubation by immunoblotting analysis. It is filed as cell-based. On the technique in general: In western blotting, separated proteins are transferred to a membrane and probed.
Sequence of Vascular endothelial growth factor receptor 2 (P35968 whole entry): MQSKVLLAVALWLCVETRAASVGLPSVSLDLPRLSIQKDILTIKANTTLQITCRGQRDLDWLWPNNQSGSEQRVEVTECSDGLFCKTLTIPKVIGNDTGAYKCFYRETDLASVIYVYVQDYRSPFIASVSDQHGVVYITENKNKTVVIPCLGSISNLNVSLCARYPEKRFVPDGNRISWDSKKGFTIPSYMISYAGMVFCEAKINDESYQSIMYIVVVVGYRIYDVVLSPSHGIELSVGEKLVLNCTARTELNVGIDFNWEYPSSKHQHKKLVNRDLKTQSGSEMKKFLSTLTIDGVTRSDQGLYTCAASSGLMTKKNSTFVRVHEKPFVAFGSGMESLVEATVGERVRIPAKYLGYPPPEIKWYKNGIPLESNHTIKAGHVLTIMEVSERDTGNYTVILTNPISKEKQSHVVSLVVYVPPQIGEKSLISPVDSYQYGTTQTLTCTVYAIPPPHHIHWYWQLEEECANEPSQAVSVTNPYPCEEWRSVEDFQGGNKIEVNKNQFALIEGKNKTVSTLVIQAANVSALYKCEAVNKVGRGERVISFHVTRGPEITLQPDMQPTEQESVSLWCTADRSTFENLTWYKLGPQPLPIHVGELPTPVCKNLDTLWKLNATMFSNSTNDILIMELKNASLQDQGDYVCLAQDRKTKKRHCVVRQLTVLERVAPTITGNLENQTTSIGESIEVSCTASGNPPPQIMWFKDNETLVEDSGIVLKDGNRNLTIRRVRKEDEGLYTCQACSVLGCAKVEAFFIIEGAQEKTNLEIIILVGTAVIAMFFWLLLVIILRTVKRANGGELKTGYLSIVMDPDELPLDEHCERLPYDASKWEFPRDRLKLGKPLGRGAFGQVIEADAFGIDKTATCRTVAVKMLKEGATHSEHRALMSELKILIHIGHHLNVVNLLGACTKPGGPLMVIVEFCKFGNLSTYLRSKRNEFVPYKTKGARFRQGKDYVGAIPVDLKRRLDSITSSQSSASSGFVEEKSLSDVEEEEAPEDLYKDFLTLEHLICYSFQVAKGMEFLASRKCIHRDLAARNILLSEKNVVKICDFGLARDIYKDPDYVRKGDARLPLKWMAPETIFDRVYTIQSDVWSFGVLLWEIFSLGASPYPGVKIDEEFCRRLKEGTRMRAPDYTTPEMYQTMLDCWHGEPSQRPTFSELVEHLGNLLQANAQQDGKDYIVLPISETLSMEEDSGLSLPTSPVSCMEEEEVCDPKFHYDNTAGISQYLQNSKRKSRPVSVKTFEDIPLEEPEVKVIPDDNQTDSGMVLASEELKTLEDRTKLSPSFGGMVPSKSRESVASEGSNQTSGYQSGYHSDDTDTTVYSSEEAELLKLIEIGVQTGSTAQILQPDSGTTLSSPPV

As a reminder, the inhibition in vivo is the relative decrease from the control value, in per cent. On to `COc1ccc2[nH]c3c(c2c1)CN(C(=O)Cc1ccccn1)CCC3`, for which the outcome in the data set with HUVEC [1] and with U-87 MG [2] was inactive. The result in the data set on HUVEC [3], in the data set on U-87 MG [4], in the data set with U-87 MG [5], in the data set with U-87 MG [6] and with U-87 MG [11] was Active. The Activity result in the data set on Mus musculus is on record as “Non-Toxic”. Moreover, the inhibition in vivo at 10 mg/kg in the data set on U-87 MG [7] was 73%; with U-87 MG [8], 20%; in the data set on U-87 MG [9] it was 60%; in the data set on U-87 MG [10], 60%.

Usually pIC50 stands for −log10 of the IC50, conventionally taken in molar units. `COc1ccc2[nH]c3c(c2c1)CNCCC3`: in [12], the pIC50 was less than 4.70.

Turning to `COc1ccc2[nH]c3c(c2c1)CN(C(=O)Cc1ccncc1)CCC3`, the pIC50 in data set [12] is less than 4.70.

As for `COc1ccc2[nH]c3c(c2c1)CN(C(=O)CN1CCOCC1)CCC3`, in [12], the negative logarithm of the IC50 (pIC50) was less than 4.70.

As to `COc1ccc2[nH]c3c(c2c1)CN(C(=O)CC(C)C)CCC3`, the pIC50 in data set [12] is less than 4.70.

On to `COc1ccc2[nH]c3c(c2c1)CN(C(=O)Cc1ccccc1)CCC3`, for which the pIC50 in data set [12] is less than 4.70.
